Source: patent EP0908457B1, “3-(1,2-benzisothiazol- and isoxazol-5-Y1)-2,4(1H,3H)-pyrimidinedione or thione and 3-(1,2-benzisothiazol- and isoxazol-5-y1)-4(3H)-pyrimidinone or thione herbicidal agents” (BASF AKTIENGESELLSCHAFT, priority 1997, dated 1999)

Columns and labels:
[1] = test system: Cyperus serotinus, Rottb.; test: Preemergence weed control under flooded paddy conditions, CYPSE (Flatsedge); format: in vivo; settings: rated three to four weeks after treatment; further: meaning of each grade not given here
Cyperus iria = test: Preemergence weed control under flooded paddy conditions, CYPIR (Rice Flatsedge); format: in vivo; settings: flooded paddy, rated three to four weeks after treatment; on herbicidal effect rating, CYPIR: meaning of each grade not given here
[2] = test system: Oryza sativa, (L.) Tebonnet; test: Rice tolerance to post-transplant applications under flooded paddy conditions (Example 187), ORYSAT (Rice, Tebonnet); settings: rated three to four weeks after treatment; on herbicidal effect rating ORYSAT: meaning of each grade not given here
Sagittaria pygmaea, L. = test: Preemergence weed control under flooded paddy conditions, SAGPY (Arrowhead (Pygmaea)); format: in vivo; settings: flooded paddy, rated three to four weeks after treatment; on herbicidal effect rating, SAGPY: meaning of each grade not given here
[3] = test system: Echinochloa oryzoides (Ard.) Fritsch.; test: Preemergence weed control under flooded paddy conditions, ECHORC (Watergrass (Calif.)); format: in vivo; settings: flooded paddy, rated three to four weeks after treatment; on herbicidal effect rating, ECHORC: meaning of each grade not given here
[4] = test system: Monochoria vaginalis, Presl.; test: Preemergence weed control under flooded paddy conditions, MOOVA (Monochoria); format: in vivo; settings: preemergence, flooded paddy, rated three to four weeks after treatment
[5] = Rate 0.1250 kg/ha, preemergence
[6] = Rate 0.0620 kg/ha, preemergence
[7] = Rate 0.2500 kg/ha, preemergence
[8] = Rate 0.0320 kg/ha, preemergence weeds
[9] = Rate 0.0620 kg/ha, preemergence weeds
[10] = Rate 0.1250 kg/ha, preemergence weeds
[11] = Rate 0.2500 kg/ha, preemergence weeds
[12] = Rate 0.0320 kg/ha, preemergence

Cn1c(C(F)(F)F)cc(=O)n(-c2ccc3snc(C(C#N)=Cc4cnc[nH]4)c3c2)c1=O [Example 595, 1,2-Benzisothiazole-3-acetonitrile, 5-[3,6-dihydro-3-methyl-2,6-dioxo-4-(trifluoromethyl)-1(2H)-pyrimidinyl]-alpha-(imidazol-5-ylmethylene)-]
herbicidal effect rating, CYPSE [1, 5]: 0.0
herbicidal effect rating, CYPIR (Cyperus iria; [6]): 0.0
herbicidal effect rating, CYPIR (Cyperus iria; [5]): 2.0
herbicidal effect rating, CYPIR (Cyperus iria; [7]): 4.0
herbicidal effect rating ORYSAT ([2]; Rate 0.0620 kg/ha): 0.0
herbicidal effect rating ORYSAT ([2]; Rate 0.1250 kg/ha): 0.0
herbicidal effect rating ORYSAT ([2]; Rate 0.2500 kg/ha): 2.0
herbicidal effect rating, SAGPY (Sagittaria pygmaea, L.; [6]): 0.0
herbicidal effect rating, SAGPY (Sagittaria pygmaea, L.; [5]): 0.0
herbicidal effect rating, SAGPY (Sagittaria pygmaea, L.; [7]): 0.0
herbicidal effect rating, ECHORC [3, 6]: 0.0
herbicidal effect rating, ECHORC [3, 5]: 3.0
herbicidal effect rating, ECHORC [3, 7]: 4.0

Cn1c(C(F)(F)F)cc(=O)n(-c2ccc3snc(-c4ccccc4OCC(=O)NS(=O)(=O)CCl)c3c2)c1=O [Example 344, Acetamide, N-[(chloromethyl)sulfonyl]-2-{o-{5-[3,6-dihydro-3-methyl-2,6-dioxo-4-(trifluoromethyl)-1(2H)-pyrimidinyl]-1,2-benzisothiazol-3-yl}phenoxy}-]
herbicidal effect rating, CYPSE [1, 8]: 6.0
herbicidal effect rating, CYPSE [1, 9]: 6.0
herbicidal effect rating, CYPSE [1, 10]: 6.0
herbicidal effect rating, CYPSE [1, 11]: 6.0
herbicidal effect rating, CYPIR (Cyperus iria; [8]): 6.0
herbicidal effect rating, CYPIR (Cyperus iria; [9]): 6.0
herbicidal effect rating, CYPIR (Cyperus iria; [10]): 7.0
herbicidal effect rating, CYPIR (Cyperus iria; [11]): 9.0
herbicidal effect rating ORYSAT ([2]; Rate 0.0320 kg/ha): 2.0
herbicidal effect rating ORYSAT ([2]; Rate 0.0620 kg/ha): 5.0
herbicidal effect rating ORYSAT ([2]; Rate 0.1250 kg/ha): 5.0
herbicidal effect rating ORYSAT ([2]; Rate 0.2500 kg/ha): 9.0
herbicidal effect rating, SAGPY (Sagittaria pygmaea, L.; [8]): 0.0
herbicidal effect rating, SAGPY (Sagittaria pygmaea, L.; [9]): 0.0
herbicidal effect rating, SAGPY (Sagittaria pygmaea, L.; [10]): 3.0
herbicidal effect rating, SAGPY (Sagittaria pygmaea, L.; [11]): 6.0
herbicidal effect rating, ECHORC [3, 8]: 4.0
herbicidal effect rating, ECHORC [3, 9]: 7.0
herbicidal effect rating, ECHORC [3, 10]: 7.0
herbicidal effect rating, ECHORC [3, 11]: 9.0

C#CCOC(=O)COc1ccc(OC)cc1-c1nsc2ccc(-n3c(=O)cc(C(F)(F)F)n(C)c3=O)cc12 [Example 349, Acetic acid, {2-{5-[3,6-dihydro-3-methyl-2,6-dioxo-4-(trifluoromethyl)-1(2H)-pyrimidinyl]-1,2-benzisothiazol-3-yl}-4-methoxyphenoxy}-, 2-propynyl ester]
herbicidal effect rating, CYPSE [1, 12]: 4.0
herbicidal effect rating, CYPSE [1, 6]: 4.0
herbicidal effect rating, CYPSE [1, 5]: 4.0
herbicidal effect rating, CYPSE [1, 11]: 4.0
herbicidal effect rating, CYPIR (Cyperus iria; [12]): 0.0
herbicidal effect rating, CYPIR (Cyperus iria; [6]): 4.0
herbicidal effect rating, CYPIR (Cyperus iria; [5]): 7.0
herbicidal effect rating, CYPIR (Cyperus iria; [11]): 7.0
herbicidal effect rating ORYSAT ([2]; Rate 0.0320 kg/ha): 4.0
herbicidal effect rating ORYSAT ([2]; Rate 0.0620 kg/ha): 5.0
herbicidal effect rating ORYSAT ([2]; Rate 0.1250 kg/ha): 7.0
herbicidal effect rating ORYSAT ([2]; Rate 0.2500 kg/ha): 7.0
herbicidal effect rating, SAGPY (Sagittaria pygmaea, L.; [12]): 4.0
herbicidal effect rating, SAGPY (Sagittaria pygmaea, L.; [6]): 5.0
herbicidal effect rating, SAGPY (Sagittaria pygmaea, L.; [5]): 5.0
herbicidal effect rating, SAGPY (Sagittaria pygmaea, L.; [11]): 6.0
herbicidal effect rating, ECHORC [3, 12]: 5.0
herbicidal effect rating, ECHORC [3, 6]: 5.0
herbicidal effect rating, ECHORC [3, 5]: 6.0
herbicidal effect rating, ECHORC [3, 11]: 7.0

Cn1c(C(F)(F)F)cc(=O)n(-c2ccc3snc(C(=O)CCl)c3c2)c1=O [Example 338, 2,4(1H,3H)-Pyrimidinedione, 3-[3-(chloroacetyl)-1,2-benzisothiazol-5-yl]-1-methyl-6-(trifluoromethyl)-]
herbicidal effect rating, CYPSE [1, 8]: 0.0
herbicidal effect rating, CYPSE [1, 9]: 0.0
herbicidal effect rating, CYPSE [1, 10]: 0.0
herbicidal effect rating, CYPSE [1, 11]: 5.0
herbicidal effect rating, CYPIR (Cyperus iria; [8]): 3.0
herbicidal effect rating, CYPIR (Cyperus iria; [9]): 3.0
herbicidal effect rating, CYPIR (Cyperus iria; [10]): 3.0
herbicidal effect rating, CYPIR (Cyperus iria; [11]): 8.0
herbicidal effect rating ORYSAT ([2]; Rate 0.0320 kg/ha): 0.0
herbicidal effect rating ORYSAT ([2]; Rate 0.0620 kg/ha): 0.0
herbicidal effect rating ORYSAT ([2]; Rate 0.1250 kg/ha): 3.0
herbicidal effect rating ORYSAT ([2]; Rate 0.2500 kg/ha): 6.0
herbicidal effect rating, SAGPY (Sagittaria pygmaea, L.; [8]): 0.0
herbicidal effect rating, SAGPY (Sagittaria pygmaea, L.; [9]): 2.0
herbicidal effect rating, SAGPY (Sagittaria pygmaea, L.; [10]): 2.0
herbicidal effect rating, SAGPY (Sagittaria pygmaea, L.; [11]): 5.0
herbicidal effect rating, ECHORC [3, 8]: 2.0
herbicidal effect rating, ECHORC [3, 9]: 2.0
herbicidal effect rating, ECHORC [3, 10]: 4.0
herbicidal effect rating, ECHORC [3, 11]: 9.0

Cn1c(C(F)(F)F)cc(=O)n(-c2cc3c(C(=O)NS(=O)(=O)Cc4ccccc4)nsc3cc2F)c1=O [Example 482, 1,2-Benzisothiazole-3-carboxamide, N-(benzylsulfonyl)-5-[3,6-dihydro-3-methyl-2,6-dioxo-4-(trifluoromethyl)-1(2H)-pyrimidinyl]-6-fluoro-]
CYPIR herbicidal rating (Cyperus iria; 0.0320 kg/ha, preemergence): 0.0
CYPIR herbicidal rating (Cyperus iria; 0.0620 kg/ha, preemergence): 0.0
CYPIR herbicidal rating (Cyperus iria; 0.1250 kg/ha, preemergence): 0.0
CYPIR herbicidal rating (Cyperus iria; 0.2500 kg/ha, preemergence): 6.0
ORYSAT herbicidal rating (rice tolerance) ([2]; 0.0320 kg/ha): 0.0
ORYSAT herbicidal rating (rice tolerance) ([2]; 0.0620 kg/ha): 2.0
ORYSAT herbicidal rating (rice tolerance) ([2]; 0.1250 kg/ha): 6.0
ORYSAT herbicidal rating (rice tolerance) ([2]; 0.2500 kg/ha): 7.0
MOOVA herbicidal rating ([4]; 0.0320 kg/ha): 4.0
MOOVA herbicidal rating ([4]; 0.0620 kg/ha): 5.0
MOOVA herbicidal rating ([4]; 0.1250 kg/ha): 6.0
MOOVA herbicidal rating ([4]; 0.2500 kg/ha): 7.0
SAGPY herbicidal rating (Sagittaria pygmaea, L.; 0.0320 kg/ha, preemergence): 3.0
SAGPY herbicidal rating (Sagittaria pygmaea, L.; 0.0620 kg/ha, preemergence): 4.0
SAGPY herbicidal rating (Sagittaria pygmaea, L.; 0.1250 kg/ha, preemergence): 5.0
SAGPY herbicidal rating (Sagittaria pygmaea, L.; 0.2500 kg/ha, preemergence): 7.0
ECHORC herbicidal rating ([3]; 0.0320 kg/ha, preemergence): 4.0
ECHORC herbicidal rating ([3]; 0.0620 kg/ha, preemergence): 7.0
ECHORC herbicidal rating ([3]; 0.1250 kg/ha, preemergence): 9.0
ECHORC herbicidal rating ([3]; 0.2500 kg/ha, preemergence): 9.0

Cn1c(C(F)(F)F)cc(=O)n(-c2ccc3snc(/C=C/C=O)c3c2)c1=O [Example 291, 1,2-Benzisothiazole-3-acrylaldehyde, 5-[3,6-dihydro-3-methyl-2,6-dioxo-4-(trifluoromethyl)-1(2H)-pyrimidinyl]-, (E)-]
CYPIR herbicidal effect rating (Cyperus iria; [12]): 0.0
CYPIR herbicidal effect rating (Cyperus iria; [6]): 0.0
CYPIR herbicidal effect rating (Cyperus iria; [5]): 9.0
CYPIR herbicidal effect rating (Cyperus iria; [7]): 9.0
ORYSAT herbicidal effect rating ([2]; Rate 0.0320 kg/ha): 0.0
ORYSAT herbicidal effect rating ([2]; Rate 0.0620 kg/ha): 0.0
ORYSAT herbicidal effect rating ([2]; Rate 0.1250 kg/ha): 0.0
ORYSAT herbicidal effect rating ([2]; Rate 0.2500 kg/ha): 0.0
MOOVA herbicidal effect rating ([4]; Rate 0.0320 kg/ha): 0.0
MOOVA herbicidal effect rating ([4]; Rate 0.0620 kg/ha): 9.0
MOOVA herbicidal effect rating ([4]; Rate 0.1250 kg/ha): 9.0
MOOVA herbicidal effect rating ([4]; Rate 0.2500 kg/ha): 9.0
SAGPY herbicidal effect rating (Sagittaria pygmaea, L.; [12]): 0.0
SAGPY herbicidal effect rating (Sagittaria pygmaea, L.; [6]): 0.0
SAGPY herbicidal effect rating (Sagittaria pygmaea, L.; [5]): 0.0
SAGPY herbicidal effect rating (Sagittaria pygmaea, L.; [7]): 0.0
ECHORC herbicidal effect rating [3, 12]: 0.0
ECHORC herbicidal effect rating [3, 6]: 0.0
ECHORC herbicidal effect rating [3, 5]: 0.0
ECHORC herbicidal effect rating [3, 7]: 0.0
